Measurements as given in PubChem BioAssay (NCI).
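96-well plates; 48 h exposure; 5 concentrations. Endpoints by linear interpolation between flanking doses. Not reached: highest tested concentration assigned. The concentration for 50% growth inhibition is given as GI50. TGI: concentration producing complete growth inhibition.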 Peptide text beside a SMILES is read from it. * marks the point of attachment. X26 = Clc1c(Cl)c(Cl)c(O*)c(Cl)c1Cl; Boc = CC(C)(C)OC(=O)*; OBn = c1ccc(CO*)cc1; Bn = c1ccc(C*)cc1

Legend:
Experiment in all cases: inhibition of tumour cell growth, NCI panel, 48 h
[1] = test system: DU-145 prostate
[2] = test system: EKVX NSCLC
[3] = test system: HL-60(TB) leukemia
[4] = test system: MCF7 breast
[5] = test system: NCI-H23 lung
[6] = test system: OVCAR-5 ovarian
[7] = test system: PC-3 prostate
[8] = test system: SK-MEL-2 melanoma
[9] = test system: UO-31 renal
[10] = test system: HT29 colon

In the case of `CC1=C(C(=O)NC2CCCCC2)CC(C(=O)NC2CCCCC2)=C(C)N1`, the TGI [1] is reported as over 100 µM, the TGI [2] is reported as over 100 µM and the TGI [3] is reported as over 100 µM. For the same molecule, the TGI [4] was over 100 µM, the TGI [5] was over 100 µM and the TGI [6] was over 100 µM. The TGI [7] was over 100 µM, the TGI [8] was over 100 µM and the TGI [9] was over 100 µM.
`Nc1c(S(N)(=O)=O)cc(S(N)(=O)=O)cc1S(N)(=O)=O` was tested, and the TGI [1] was over 100 µM, the TGI [2] was over 100 µM and the TGI [10] was over 100 µM. For the same molecule, the TGI [4] was over 100 µM, the TGI [5] was over 100 µM and the TGI [6] was over 100 µM. For the same molecule, the TGI [7] was over 100 µM and the TGI [9] was over 100 µM.
With `C#CCOCC12C=CC(O1)C1COC(=O)C12` (stereo unspecified) the TGI [1] was over 100 µM, the TGI [2] was over 100 µM and the TGI [3] was over 100 µM. For the same molecule, the TGI [10] was over 100 µM, the TGI [5] was over 100 µM and the TGI [6] was over 100 µM. The TGI [7] was over 100 µM and the TGI [9] was over 100 µM.
`CC(O)CNC1=CC(=O)C(=O)c2ccccc21` (stereo unspecified) was tested, and the TGI [1] was 29.1 µM, the TGI [2] was 40.2 µM and the TGI [3] was 84.4 µM. The TGI [4] was 48.7 µM, the TGI [5] was 39.1 µM and the TGI [6] was 35.6 µM. It also gave a TGI [7] of over 100 µM, a TGI [8] of 32.9 µM and a TGI [9] of 34 µM.
For `CNC(=S)NNc1ncnc2c1c(-c1ccc(Cl)cc1)cn2-c1ccc(C)cc1`, the TGI [1] was 43.4 µM, the TGI [2] was 28.8 µM and the TGI [3] was over 100 µM. The TGI [10] was 29.8 µM, the TGI [5] was 28.2 µM and the TGI [6] was 29 µM. The TGI [7] was 17.9 µM, the TGI [8] was 27.7 µM and the TGI [9] was 23.4 µM.
With `CCN1CCN(Cc2ccc(NC(=O)Nc3ccc(-n4ccc5c(NC(=O)c6ccccc6)nccc54)cc3)cc2C(F)(F)F)CC1` the GI50 [1] was 1120 nM, the TGI [1] was 2.34 µM and the GI50 [3] was 1.71 µM. For the same molecule, the TGI [3] was 7.91 µM, the GI50 [4] was 0.756 µM and the TGI [4] was 2.08 µM. It also gave a GI50 [7] of 1.16 µM, a TGI [7] of 4.68 µM and a GI50 [8] of 3.62 µM. For the same molecule, the TGI [8] was over 100 µM.
`COc1ccc2c(c1)-c1c(c3cc(OC)ccc3n1CCN(C)C)CC2` gave a TGI [1] of 26.7 µM, a TGI [10] of 19.1 µM and a TGI [4] of 28.9 µM. For the same molecule, the TGI [5] was 29.6 µM, the TGI [6] was 29.9 µM and the TGI [7] was 25.9 µM. It also gave a TGI [8] of 29 µM and a TGI [9] of 23.1 µM.
Work on `Cc1nc(SCC(N)=O)c2sc(=S)n(-c3ccccc3)c2n1` yielded a TGI [1] of over 10 µM, a TGI [2] of over 10 µM and a TGI [3] of over 10 µM. It also gave a TGI [10] of over 10 µM, a TGI [4] of over 10 µM and a TGI [5] of over 10 µM. It also gave a TGI [6] of over 10 µM, a TGI [7] of over 10 µM and a TGI [8] of over 10 µM.
`CCCO/N=[N+](\[O-])N(CC)CC` showed a TGI [2] of over 100 µM, a TGI [3] of over 100 µM and a TGI [10] of over 100 µM. It also gave a TGI [5] of over 100 µM, a TGI [6] of over 100 µM and a TGI [8] of over 100 µM. For the same molecule, the TGI [9] was over 100 µM.
`S=c1[nH]nc(Cn2c3ccc(Br)cc3c3nc4ccccc4nc32)n1C1CCCCC1` showed a TGI [1] of over 100 µM, a TGI [2] of over 100 µM and a TGI [10] of over 100 µM. It also gave a TGI [4] of over 100 µM, a TGI [5] of 42.1 µM and a TGI [6] of over 100 µM. For the same molecule, the TGI [7] was over 66.9 µM, the TGI [8] was 54.6 µM and the TGI [9] was over 76.2 µM.
With `CC1CCc2sc3nc4n(c(=O)c3c2C1)CC(C)S4` (stereo unspecified) the TGI [1] was over 100 µM, the TGI [2] was 70.4 µM and the TGI [10] was 33.4 µM. For the same molecule, the TGI [4] was 52.5 µM, the TGI [5] was over 100 µM and the TGI [6] was 92.7 µM. For the same molecule, the TGI [7] was 62.9 µM, the TGI [8] was 41.1 µM and the TGI [9] was 7.51 µM.
`N#C/C(=C\c1cccc(Br)c1)c1nc2ccccc2c(=O)[nH]1` gave a TGI [1] of over 100 µM, a TGI [2] of over 100 µM and a TGI [3] of over 100 µM. It also gave a TGI [10] of over 100 µM, a TGI [4] of over 100 µM and a TGI [6] of over 100 µM. It also gave a TGI [7] of over 100 µM, a TGI [8] of over 100 µM and a TGI [9] of over 100 µM.
Work on `O=C1/C(=C/c2ccc(Cl)cc2)CCCc2ccc(F)cc21` yielded a GI50 [2] of 27.9 µM, a TGI [2] of 61 µM and a GI50 [3] of 17.2 µM. It also gave a TGI [3] of over 100 µM, a GI50 [10] of 24.2 µM and a TGI [10] of over 100 µM. For the same molecule, the GI50 [4] was 8.35 µM, the TGI [4] was over 100 µM and the GI50 [5] was 36.7 µM. For the same molecule, the TGI [5] was over 100 µM, the GI50 [6] was 32.4 µM and the TGI [6] was over 100 µM. The GI50 [7] was 15.9 µM, the TGI [7] was 48.3 µM and the GI50 [9] was 15.8 µM. It also gave a TGI [9] of 35.9 µM.
Work on `CCCCCCCCCCCCOCCOCCOCCOCCOCCOCC(=O)NC(Cc1ccccc1)C(=O)Oc1ccc([N+](=O)[O-])cc1` (stereo unspecified) yielded a TGI [2] of over 100 µM, a TGI [3] of over 100 µM and a TGI [10] of over 100 µM. It also gave a TGI [4] of over 100 µM, a TGI [5] of over 100 µM and a TGI [6] of over 100 µM. It also gave a TGI [7] of over 100 µM, a TGI [8] of 47.9 µM and a TGI [9] of over 100 µM.
Work on `C[C@H](c1ccccc1)N1C(=O)[C@@H](OCc2ccccc2)[C@H]1[C@H](COC(=O)COCc1ccccc1)OCc1ccccc1` yielded a TGI [1] of over 100 µM, a TGI [2] of over 100 µM and a TGI [4] of over 100 µM. It also gave a TGI [5] of over 100 µM, a TGI [6] of over 100 µM and a TGI [7] of over 100 µM. The TGI [8] was over 100 µM and the TGI [9] was over 100 µM.
Work on `CC(C)CC(NC(=O)C(CCC(=O)OCc1ccccc1)NC(=O)OC(C)(C)C)C(=O)NC(COCc1ccccc1)C(=O)NC(Cc1ccccc1)C(=O)Oc1c(Cl)c(Cl)c(Cl)c(Cl)c1Cl` (stereo unspecified) (Boc-E(OBn)LS(Bn)F-X26; configuration not given here) yielded a TGI [1] of over 100 µM, a TGI [2] of 96.2 µM and a TGI [10] of over 100 µM. It also gave a TGI [4] of 66.3 µM, a TGI [5] of 34.2 µM and a TGI [6] of 56.7 µM. It also gave a TGI [7] of over 100 µM, a TGI [8] of 69 µM and a TGI [9] of 50.2 µM.
